The results in this text go back to patent EP1157997A1, “NOVEL DIPEPTIDE COMPOUND AND MEDICINAL USE THEREOF” (JAPAN ENERGY CORPORATION, priority 1999, dated 2001).

Usually fraction unbound stands for free concentration divided by total concentration. The IC50 is the concentration needed to halve the response being measured.

One data set in a line: in vitro. It counts as in vitro ADME. Conditions: human, plasma. Here is the method: Freezed human plasma (HFFPP100) was used after thawing. Powder of human alpha 1-acid glycoprotein (supplied by SIGMA Co., hereinafter abbreviated to AAG) was dissolved in a phosphate buffer solution (PBS, pH 7.0) to a concentration of 1 mg/ml. Drug solutions were prepared by dissolving the compounds synthesized in Example 1 and Reference Example 1 in dimethylsulfoxide in various concentrations.
The drug solutions (10 µl, each) with different concentrations were added to 990 µl the plasma or AAG solutions prepared above, stirred well and incubated for 18 hours at 37°C to equilibrate binding proteins. All amount of the solution was transferred to Micropartition Devices (Centrifree® , Millipore Co.) and filtered by centrifugation at 1500 x g for 20 minutes (using TOMY CX-210 high-speed cooling centrifugal machine). 200 µl of the filtrate was directly subjected to HPLC (Type: HITACHI D-7000, column: COSMOSIL (4.6* 250 mm, manufactured by Nacalai Tesque Co., Ltd.). The HPLC analysis was carried out by using a 59:41 (v/v) water-acetonitrile mixture containing 0.1% trifluoroacetic acid (TFA) as a mobile phase and measuring absorbance at 210 nm. The quantitative determination of unbound drug concentration was carried out based on the absolute calibration curve method using a calibration line obtained from the analysis of a standard sample which contains the drug at a known concentration. […]

The test system of data set [1] is HIV virus (HIV-1 IIIB strain). Description: Anti-HIV activity, cytopathic effect in CEM-SS cells by XTT dyeing, in the presence of 50% human blood serum. The class given is cell-based. Conditions: Human immunodeficiency virus 1, IIIB, in the presence of 50% human blood serums, read-out: IC50 value in an anti-virus test. Here is the method:
The anti-HIV activity of the compounds synthesized Examples 1-15 and Reference Examples 1-4 was measured according to the method reported by O. S. Weislow et al. (J. Natl. Cancer Inst. 81, 577-586, 1989) using CEM-SS cells as host cells and HIV virus (HIV-1 IIIB strain) (see T. Mimoto et al., J. Med. Chem., 42, 1789-1802, 1999, etc.).
Specifically, the compounds synthesized Examples 1-15 and Reference Examples 1-5 in various concentrations were added to a culture medium on 96-well microtiter plates. Human blood serum was added to a final concentration of 50%, then HIV infected CEM-SS cells was added, followed by incubation in a CO2 atmosphere at 37°C for 6 days. The cytopathic effect induced by HIV-1 IIIB was measured by tetrazolium dye XTT dyeing method to evaluate the 50% inhibitory concentration (IC50).
(Damage to the host cells serves as the signal in cytopathic effect assays.)

On to `Cc1ccccc1CNC(=O)[C@H]1N(C(=O)[C@@H](O)[C@H](Cc2ccccc2)NC(=O)c2cccc(O)c2C)CSC1(C)C` [Reference Example 1, reference compound], for which the unbound share (fraction unbound) at 18 h, 1 µM in the data set “in vitro” was determined as 0.013. As for `COc1ccc(C[C@H](NC(=O)c2cccc(O)c2C)[C@H](O)C(=O)N2CSC(C)(C)[C@H]2C(=O)NCc2ccccc2C)cc1` [Example 1, (R)-N-(2-methylbenzyl)-3-[(2S,3S)-2-hydroxy-3-(3-hydroxy-2-methylbenzoyl)amino-4-(4-methoxyphenyl)butanoyl]-5,5-dimethyl-1,3-thiazolidine-4-carboxamide], in “in vitro”, the fraction unbound at 18 h, 1 µM is 0.029. For the same molecule, the IC50 in data set [1] was found to be 6 ng/mL.
